What all share (type): cell-based
Assay [1] relates to human sperm. Description: Sperm motion analysis (computerized semen analyzer). The settings on record: for Effect on motility characteristics (velocity, ALH, beat frequency) / Effect on the percentage of motile sperm cells: peptide 0.5 micrograms per hundred microliters; for ALH (amplitude of lateral head displacement) (Mean ± S.D.) / Beat Frequency (Mean ± S.D.) / Linearity (Mean ± S.D.) / Percent Motility / Velocity (Mean ± S.D.): thymosins 0.5 μg/100 μl, 5 to 6 hours. The protocol: After incubation with thymosin peptides or their antibodies for 5 to 6 hours as described above, an aliquot (7 microliters) of the sperm suspension was placed into a Makler chamber (Sefi Medical Instruments, Israel) and the sperm motion characteristics measured using a computerized semen analyzer (Cell Soft Cryo Resources, N.Y.). The parameter settings were 30 frames analyzed at an image frequency of 30 Hz, 3 frames minimum sampling for motility, 15 frames minimum sampling for both velocity and amplitude of the lateral head movement ("ALH") measurements, 10 micrometers per second threshold velocity, minimum linearity of 2.5 for ALH measurements and a cell size range of 4-40 pixels with a magnification calibration of 0.688 micrometers per pixel.

Assay [2] relates to human sperm. Description: Human sperm penetration assay of zona-free hamster oocytes (SPA). The settings on record: for Ova penetrated, % of control (mean ± SD): 5-6 hours, sperm of fertile men. The protocol: Human sperm penetration assay of zona-free-hamster oocytes (SPA) was performed as described in Naz et al., J. Cell Sci., 102:487-494 (1992). Superovulation was induced in adult female golden hamsters by intraperitoneal injections of 30 IU eCG (pregnant mare serum gonadotropin)(Sigma Chemical Co., St. Louis, Mo.) on day 1 of the cycle. After 55-72 hours, 20 IU hCG (human chorionic gonadotropin) (Sigma) were administered intraperitoneally. 15-17 hours later the animals were sacrificed and the mature unfertilized ova were collected from the oviducts. The ova were separated from the surrounding cumulus cells by incubation with 0.2% hyaluronidase in Biggers, Witten and Wittingham (BWW) medium and from the zonae pellucida by treatment with 0.1% pancreatic trypsin in BWW. The zona-free ova were twice washed in BWW and placed in the center of a tissue culture dish.
Semen from a fertile person was liquified for 15-30 minutes at 37° C. and the swim-up sperm population was collected. Collection techniques are described in Naz et al., J. Cell Sci., 99:157-165 (1991). The sperm cells from the swim-up were washed with BWW supplemented with 1% BSA (Sigma Chemical Co.) adjusted to 5-10×10^6 motile sperm per milliliter and then allowed to incubate for 5-6 hours at 37° C. ([…]) or polyclonal antisera elicited in response to those immunogens (10-20 microliters of antiserum/100 microliters of sperm suspension) or the same amount of control antibodies (normal rabbit serum, anti-KLH antibodies or anti-HGP-30 antibodies) or the equivalent volume of PBS containing 0.5% BSA (PBS/BSA). After incubation the sperm were washed to remove the unreacted thymosin or anti-thymosin antibody and co-incubated with the zona-denuded hamster oocytes (30-50 eggs/treatment in each assay) for three to four hours. The oocytes were removed, thoroughly washed, fixed with 3% […] and stained with acetocarmine solution. Sperm penetration was determined by the presence of a swollen spermhead with a discernable tail in the cytoplasm of the ovum. Motility of sperm before and after incubation with ova was recorded. The assays were repeated at least three to eight times using different fertile donors and each sample tested with at least 82-480 oocytes.
The percentage of ova penetrated was calculated according to the following formula; [formula]

Assay [3] deals with human sperm. Description: Assessment of acrosomal status (triple stain) of human sperm. The settings on record: for Effect on capacitation and acrosome reaction of human sperm cells: 0.5 micrograms/microliter, 5-6 hours, with or without ionophore; for Acrosome reacted sperm (%) (Mean ± SD): thymosins 0.5 μg/100 μl. The protocol: Motile sperm were collected from fertile men by the swim up procedure as set forth in Naz et al., referenced above. Good quality sperm samples, i.e., (5×10^6 motile sperm per milliliter), greater than 75% motility, +3 to +4 forward progression on a scale of 0 to +5 were incubated with Tα1 or Tβ4 or anti-Tα1 antibodies or anti-Tβ4 antibodies. The controls were treated with the same amount of normal rabbit serum, anti-KLH antibodies, anti-HGP 30 antibodies or PBS-BSA as previously described. After incubation, the spermatozoa were centrifuged, washed in PBS and divided into two aliquots. One aliquot was induced to acrosome react with calcium ionophore (Calcium ionophore A23187 (Sigma)) and incubated with sperm suspension for one hour. The other aliquot was allowed to spontaneously acrosome react without treating with calcium ionophore. Calcium ionophore treatment was carried out to induce acrosome reaction of the capacitated sperm. The acrosomal status was assessed using the triple stain procedure described by Jager et al., Arch. Androl., 12:53-58 (1984). The sperm were washed twice in PBS and then incubated at 37° C. for fifteen minutes with 2% Trypan blue (Sigma 1:1 v/v) in PBS. After incubation, the sperm were washed twice, fixed in three percent glutaraldehyde, 0.1M cacodylate buffer for sixty minutes and then twice washed again in PBS. A drop of this suspension was placed on a glass slide and allowed to air dry overnight. The dried slide was stained with 0.8% Bismark Brown (Sigma) in deionized water (pH 1.8 with 2N HCl), rinsed in deionized water and stained for 45 minutes at room temperature in 0.8% Rose Bengal (Sigma) in 0.1M cacodylate buffer at pH 6.0. The slides were again washed in deionized water, dehydrated in an alcohol series, cleared in xylene and mounted with permount and a coverslip. A total of 200-500 sperm per sample were evaluated and recorded as either alive or dead. The alive sperm were further evaluated as acrosome-intact or acrosome-non-intact (reacted) sperm. The experiments were repeated 3-5 times using sperm of at least three different fertile donors.

The test system of assay [4] is human sperm. Description: Assessment of acrosin distribution (BAPNA acrosin activity in cells and supernatant). The settings on record: for Effect on acrosin distribution vs PBS-BSA treated sperm: peptide 0.5 micrograms/100 microliters, with or without ionophore; for Acrosin activity, cells (Mean ± SD) / Acrosin activity, supernatant (Mean ± SD): thymosins 0.5 μg/100 μl. The protocol:
After incubation with the thymosin peptides or the anti-thymosin antibodies or control antibodies or PBS-BSA and with or without treating with calcium ionophore A23187 for one hour as described above, the sperm cells were centrifuged and the acrosin activity determined in the supernatant and cells by the method of Kennedy et al., J. Androl., 10:21-27 (1989). Ninety microliters of the supernatant or the pelleted sperm cells suspended in 90 microliters of PBS were mixed with one milliliter of the reaction mixture. The reaction mixture comprises one milligram per milliliter of N-benzoyl-dl-arginine-P-nitraniline (BAPNA) hydrochloride in 0.055M HEPES buffer, 0.055M NaCl, 10% v/v (dimethylsulfoxide), 0.1% v/v TRITON X-100 (t-Octylphenoxypolyethoxyethanol). The solution then was incubated for three hours at room temperature. The reaction was stopped by the addition of 100 microliters of 0.5M benzamidine and the absorbance measured at 405 nanometers using a Beckman spectrophotometer. Acrosin activity was expressed as μIU/10^6 spermatozoa. The daily variability of the assay was normalized using a cryopreserved partially-purified human acrosin extract. The preparation of such extracts is taught by Naz et al., J. Cell Sci., 102:487-494 (1992).

[5] abbreviates: peptide 0.1 μg/100 μl sperm suspension.
Setting [6] is: peptide 0.5 μg/100 μl sperm suspension.
[7] abbreviates: peptide 2.0 μg/100 μl sperm suspension.
Setting [8] is: peptide 10.0 μg/100 μl sperm suspension.

Ends that are not written are not given here.

For the substance “thymosin-α1 (SDAAVDTSSEITTKDLKEKKEVVEEAEN; not fully specified; ends and bridges not checked; UniProt P06454 2-29, looked up) [Tα1, Thymus factor peptide; available from Alpha 1 Biomedicals]”, in the assay on human sperm [1], the “Effect on motility characteristics (velocity, ALH, beat frequency)” value is “significantly affected the velocity, ALH and beat frequency”; the “Effect on the percentage of motile sperm cells” value was “No effect”; the “ALH (amplitude of lateral head displacement) (Mean ± S.D.)” value was determined as 4.0 ± 0.3; the “Beat Frequency (Mean ± S.D.)” value is 13.7 ± 0.6. In the assay on human sperm [1], the “Linearity (Mean ± S.D.)” value is reported as 3.9 ± 0.6, the “Percent Motility” value was 80.3 ± 6.2% and the “Velocity (Mean ± S.D.)” value is reported as 61.1 ± 3.0. The “Fold increase of percentage of ova penetrated compared to PBS-BSA-treated control sperm” value with human sperm [2] (0.05 to 0.5 μg Tα1/100 μl sperm suspension, P<0.001) is reported as “up to 2.6 fold”. Besides, the “Ova penetrated, % of control (mean ± SD)” value in the assay with human sperm [2] (peptide 0.01 μg/100 μl sperm suspension) is 120.3 ± 11.6%. Moreover, the “Ova penetrated, % of control (mean ± SD)” value in the assay on human sperm [2] (peptide 0.05 μg/100 μl sperm suspension) amounted to 268.2 ± 26.4%. The “Ova penetrated, % of control (mean ± SD)” value with human sperm [2] (setting [5]) was 251.0 ± 36.3%. Also, the “Ova penetrated, % of control (mean ± SD)” value in the assay with human sperm [2] (setting [6]) was found to be 204.0 ± 13.9%. Besides, the “Ova penetrated, % of control (mean ± SD)” value with human sperm [2] (setting [7]) was 100.5 ± 0.7%. Besides, the “Ova penetrated, % of control (mean ± SD)” value with human sperm [2] (setting [8]) is 102.2 ± 18.9%. The “Effect on capacitation and acrosome reaction of human sperm cells” value with human sperm [3] is “significantly enhanced capacitation and acrosome reaction”. For the same substance, in the assay on human sperm [3] (with ionophore treatment), the “Acrosome reacted sperm (%) (Mean ± SD)” value came to 69.2 ± 3.6%. The “Acrosome reacted sperm (%) (Mean ± SD)” value with human sperm [3] (without ionophore treatment) turned out to be 18.5 ± 3.5%. Also, in the assay with human sperm [4], the “Effect on acrosin distribution vs PBS-BSA treated sperm” value was “significantly higher quantity of acrosin concentration released in the supernatant and a lower quantity of acrosin concentration in the sperm cells”. Also, in the assay with human sperm [4] (with ionophore treatment), the “Acrosin activity, cells (Mean ± SD)” value stood at 30.6 ± 7.2 μIU/10^6 spermatozoa and the “Acrosin activity, supernatant (Mean ± SD)” value was 68.2 ± 16.6 μIU/10^6 spermatozoa. In the assay on human sperm [4] (without ionophore treatment), the “Acrosin activity, cells (Mean ± SD)” value came to 64.5 ± 6.4 μIU/10^6 spermatozoa and the “Acrosin activity, supernatant (Mean ± SD)” value came to 27.5 ± 13.4 μIU/10^6 spermatozoa.
As for thymosin-β4 [Tβ4], in the assay with human sperm [1], the “Effect on motility characteristics (velocity, ALH, beat frequency)” value is recorded as “Neither Tβ4 peptide nor the control antibodies affected any motility characteristics”; the “Effect on the percentage of motile sperm cells” value is on record as “No effect”; the “ALH (amplitude of lateral head displacement) (Mean ± S.D.)” value is listed as 3.7 ± 0.4; the “Beat Frequency (Mean ± S.D.)” value is recorded as 13.1 ± 0.3. For the same substance, in the assay on human sperm [1], the “Linearity (Mean ± S.D.)” value came to 4.0 ± 0.6, the “Percent Motility” value is reported as 76.0 ± 4.3% and the “Velocity (Mean ± S.D.)” value is listed as 58.5 ± 2.6. Besides, in the assay on human sperm [2] (setting [5]), the “Ova penetrated, % of control (mean ± SD)” value is 102.7 ± 6.5%. Also, in the assay with human sperm [2] (setting [6]), the “Ova penetrated, % of control (mean ± SD)” value amounted to 99.7 ± 10.1%. Besides, the “Ova penetrated, % of control (mean ± SD)” value with human sperm [2] (setting [7]) turned out to be 61.8 ± 27.9%. Moreover, the “Ova penetrated, % of control (mean ± SD)” value in the assay on human sperm [2] (setting [8]) stood at 31.5 ± 12.2%. The “Effect on capacitation and acrosome reaction of human sperm cells” value in the assay on human sperm [3] is listed as “did not exhibit a significant effect”. Moreover, the “Acrosome reacted sperm (%) (Mean ± SD)” value with human sperm [3] (with ionophore treatment) was 61.5 ± 4.8%. Further, the “Acrosome reacted sperm (%) (Mean ± SD)” value in the assay with human sperm [3] (without ionophore treatment) came to 14.5 ± 2.1%. The “Effect on acrosin distribution vs PBS-BSA treated sperm” value with human sperm [4] is given as “no significant effect”. Also, in the assay with human sperm [4] (with ionophore treatment), the “Acrosin activity, cells (Mean ± SD)” value is 38.5 ± 7.1 μIU/10^6 spermatozoa and the “Acrosin activity, supernatant (Mean ± SD)” value was 52.8 ± 16.2 μIU/10^6 spermatozoa. Moreover, in the assay on human sperm [4] (without ionophore treatment), the “Acrosin activity, cells (Mean ± SD)” value is on record as 76.5 ± 9.1 μIU/10^6 spermatozoa and the “Acrosin activity, supernatant (Mean ± SD)” value stood at 21.0 ± 14.4 μIU/10^6 spermatozoa.
